ChEMBL document CHEMBL1143770, “Mono, di and tri-mannopyranosyl phosphates as mannose-1-phosphate prodrugs for potential CDG-Ia therapy” (Bioorg Med Chem Lett, 2007)

Key:
[1] = Inhibition 2[3H]mannose incorporation into glycoconjugates in lymphoblasts isolated from congenital disorders of glycosylation-Ia patient at 300 uM; type: functional; conditions: Homo sapiens, Lymphoblast
[2] = Cytotoxicity in human lymphoblasts assessed as release of cellular lactate dehydrogenase at 300 uM after 16 hrs relative to methanol; type: cell-based; conditions: lymphoblast

Compound	inhibition at 300 µM [1] [%]	Activity [2]
CC(=O)OC[C@H]1O[C@H](OP(=O)(Oc2ccccc2)O[C@H]2O[C@H](COC(C)=O)[C@@H](OC(C)=O)[C@H](OC(C)=O)[C@@H]2OC(C)=O)[C@@H](OC(C)=O)[C@@H](OC(C)=O)[C@@H]1OC(C)=O (single isomer, unassigned)	26	–
CC(=O)OC[C@H]1O[C@H](OP(=O)(Oc2cccc3ccccc23)O[C@H]2O[C@H](COC(C)=O)[C@@H](OC(C)=O)[C@H](OC(C)=O)[C@@H]2OC(C)=O)[C@@H](OC(C)=O)[C@@H](OC(C)=O)[C@@H]1OC(C)=O (single isomer, unassigned)	56	<= 25%
CC(C)C(=O)OC[C@H]1O[C@H](OP(=O)(Oc2ccccc2)O[C@H]2O[C@H](COC(=O)C(C)C)[C@@H](OC(=O)C(C)C)[C@H](OC(=O)C(C)C)[C@@H]2OC(=O)C(C)C)[C@@H](OC(=O)C(C)C)[C@@H](OC(=O)C(C)C)[C@@H]1OC(=O)C(C)C (single isomer, unassigned)	78	–
CCCC(=O)OC[C@H]1O[C@H](OP(=O)(OCc2ccccc2)O[C@H]2O[C@H](COC(=O)CCC)[C@@H](OC(=O)CCC)[C@H](OC(=O)CCC)[C@@H]2OC(=O)CCC)[C@@H](OC(=O)CCC)[C@@H](OC(=O)CCC)[C@@H]1OC(=O)CCC (single isomer, unassigned)	71	–
